The values below come from patent publication US20070248599A1 (priority 2006, published 2007).

The subject of test [1] is N2a-APPsw cells. In words: Cellular Aβ production in N2a-APPsw cells (Aβ40 ELISA of conditioned medium). It is filed as cell-based, mouse. The following applies: for Aβ production: recombinant ApoE forms at 10 μg/ml, N2a-APPsw cells (FIG. 5B). Here is the method:
Quantification of β-Amyloid40, Neuro-2a cell stably overexpressing APPsw695 was used for detecting of β-Amyloid40. N2a-APPsw cells were grown in Dulbecco's Modified Eagle's medium (DMED) containing 10% fetal bovine serum, 100 U/mL penicillin, and 100 μg/mL streptomycin (GibcoBUR) with 80 μg/mL G418. Cells were cultured in 24-well plates one day before treatment. Transient transfections were done using FeGENE6 (Roche), fresh Optimum medium (Invitrogen) were supplied 5 h after transfection. Same concentration purified Apolipoprotein was added into the fresh medium. Conditioned medium was collected 24 h later. Aβ40 was quantified with sandwich ELISA by using Aβ40 ELISA Kit (Biosource). At least three times assays were done for each condition.
Cellular Aβ40 production. Neuroblastoma N2a-APPsw cells (from Dr. Riqiang Yan, Lerner Research Institute, Cleveland, Ohio) were cultured in 24-well plates in Dulbecco's Modified Eagle's medium (DMED) containing 10% fetal bovine serum, 100 U/mL penicillin, and 100 μg/mL streptomycin (GibcoBUR) with 80 μg/mL G418 one day before use. Transient transfections were done using FeGENE6 (Roche), fresh Optimum medium (Invitrogen) were supplied 5 h after transfection. Apolipoproteins were added in the fresh medium at 10 μg/mL. Conditioned medium was collected 24 h later. Aβ40 was determined in tripcates using Aβ40 ELISA Kit (Biosource). For studying the effect of PTB domain on Aβ production, N2a-APPsw cells were transfected with (0.4 μg/per well for 24 well plate) of PTB-containing vector before subjected to the above procedure.
On the technique in general: ELISA stands for enzyme-linked immunosorbent assay.

Test [2] concerns N2a-APPsw cells. The description is as above. Type of test: cell-based, mouse. The following applies: for Aβ production: each at 5 μg/mL, 24 h, N2a-APPsw cells (FIG. 5B legend).
In test [3] the test system is N2a-APPsw cells transfected with ApoER2 and β-secretase. Briefly: Internalization of cell surface proteins (biotinylation, Western blot). It is filed as cell-based, mouse. Here is the method: Internalization of cell surface proteins. N2a-APPsw cells were transiently tranfected with ApoER2 and β-secretase with Lipfectamine 2000. […] Cells were then placed on ice, rinsed in cold PBS and incubated in PBS containing 1.5 mg/mL sulfo-NHS-LC-biotin (Pierce) for 20 min at 4° C. Cells were rinsed twice in PBS and lysed in 800 μl PBS containing 0.1% SDS, 1% NP40 and a complete protease inhibitor cocktail. Total protein concentration was determined by immunoblotting from an aliquot of 50 μl cell lysate. Biotinylated proteins were recovered with NeutrAvidin agarose (50 μl; Pierce), rinsed three times, eluted in 20 μl SDS-sample buffer at boiling temperature and used for Western-blot. Quantity of bands was determined by optical scanning instruments specified above. For the determination of internalized proteins, cells were prepared as above, rinsed in PBS and then incubated with cold 1.5 mg/mL cleavable biotin reagent in PBS (EZ-Link Sulfo-NHS-SS biotin, Pierce) for 20 min at 4° C. […] Cells were then lysed in 800 μl PBS containing 0.1% SDS, 1% NP40 and a complete protease inhibitor cocktail. After centrifugation, biotinylated proteins were retrieved by incubation with NeutrAvidin agarose (50 μl; Pierce). Isolated proteins were rinsed in buffer three times and boiled in 20 μl sample buffer for Western blots.
For orientation: A western blot detects proteins with antibodies after separation by electrophoresis.

The test system is the same in test [4]. The test is described as above. The following applies: Western blot of conditioned medium (FIG. 6D). It is filed as cell-based, mouse.
For test [5], the target named is T1, human LRP (LDL receptor related protein) (human, UniProt Q07954 20-4544).
T1 construct: whole, on cells; Expressed in HEK293 cells in place of ApoER2 and assayed in lysate
Briefly: co-IP from HEK293 lysate, Western blot. Here is the method:
KPI is a Kunitz protease inhibitor domain. In ApoER2, the alternative spliced 59-residue insertion is shown in blue. […] Experimental conditions same as in FIG. 7A.
Co-immunoprecipitation and Western Blot Assays. […] 36 h after transfection, cells were harvested and lysed on ice in lysis buffer (PBS, pH 7.4 with 1% NP-40 and 1% Saponin with protease inhibitors cocktail (Roche)). Cell lysates were cleared by centrifugation and immunoprecipitated with indicated antibody for 4 h at 4° C. Immune complexes were isolated using protein G-agarose beads (Sigma) and subjected to SDS-PAGE and Western blotting using specific antibodies.

Where [6] appears, read: 10 μg/mL, internalization 15 min at 37° C. (FIG. 6B).

T1 sequence (Q07954 20-4544): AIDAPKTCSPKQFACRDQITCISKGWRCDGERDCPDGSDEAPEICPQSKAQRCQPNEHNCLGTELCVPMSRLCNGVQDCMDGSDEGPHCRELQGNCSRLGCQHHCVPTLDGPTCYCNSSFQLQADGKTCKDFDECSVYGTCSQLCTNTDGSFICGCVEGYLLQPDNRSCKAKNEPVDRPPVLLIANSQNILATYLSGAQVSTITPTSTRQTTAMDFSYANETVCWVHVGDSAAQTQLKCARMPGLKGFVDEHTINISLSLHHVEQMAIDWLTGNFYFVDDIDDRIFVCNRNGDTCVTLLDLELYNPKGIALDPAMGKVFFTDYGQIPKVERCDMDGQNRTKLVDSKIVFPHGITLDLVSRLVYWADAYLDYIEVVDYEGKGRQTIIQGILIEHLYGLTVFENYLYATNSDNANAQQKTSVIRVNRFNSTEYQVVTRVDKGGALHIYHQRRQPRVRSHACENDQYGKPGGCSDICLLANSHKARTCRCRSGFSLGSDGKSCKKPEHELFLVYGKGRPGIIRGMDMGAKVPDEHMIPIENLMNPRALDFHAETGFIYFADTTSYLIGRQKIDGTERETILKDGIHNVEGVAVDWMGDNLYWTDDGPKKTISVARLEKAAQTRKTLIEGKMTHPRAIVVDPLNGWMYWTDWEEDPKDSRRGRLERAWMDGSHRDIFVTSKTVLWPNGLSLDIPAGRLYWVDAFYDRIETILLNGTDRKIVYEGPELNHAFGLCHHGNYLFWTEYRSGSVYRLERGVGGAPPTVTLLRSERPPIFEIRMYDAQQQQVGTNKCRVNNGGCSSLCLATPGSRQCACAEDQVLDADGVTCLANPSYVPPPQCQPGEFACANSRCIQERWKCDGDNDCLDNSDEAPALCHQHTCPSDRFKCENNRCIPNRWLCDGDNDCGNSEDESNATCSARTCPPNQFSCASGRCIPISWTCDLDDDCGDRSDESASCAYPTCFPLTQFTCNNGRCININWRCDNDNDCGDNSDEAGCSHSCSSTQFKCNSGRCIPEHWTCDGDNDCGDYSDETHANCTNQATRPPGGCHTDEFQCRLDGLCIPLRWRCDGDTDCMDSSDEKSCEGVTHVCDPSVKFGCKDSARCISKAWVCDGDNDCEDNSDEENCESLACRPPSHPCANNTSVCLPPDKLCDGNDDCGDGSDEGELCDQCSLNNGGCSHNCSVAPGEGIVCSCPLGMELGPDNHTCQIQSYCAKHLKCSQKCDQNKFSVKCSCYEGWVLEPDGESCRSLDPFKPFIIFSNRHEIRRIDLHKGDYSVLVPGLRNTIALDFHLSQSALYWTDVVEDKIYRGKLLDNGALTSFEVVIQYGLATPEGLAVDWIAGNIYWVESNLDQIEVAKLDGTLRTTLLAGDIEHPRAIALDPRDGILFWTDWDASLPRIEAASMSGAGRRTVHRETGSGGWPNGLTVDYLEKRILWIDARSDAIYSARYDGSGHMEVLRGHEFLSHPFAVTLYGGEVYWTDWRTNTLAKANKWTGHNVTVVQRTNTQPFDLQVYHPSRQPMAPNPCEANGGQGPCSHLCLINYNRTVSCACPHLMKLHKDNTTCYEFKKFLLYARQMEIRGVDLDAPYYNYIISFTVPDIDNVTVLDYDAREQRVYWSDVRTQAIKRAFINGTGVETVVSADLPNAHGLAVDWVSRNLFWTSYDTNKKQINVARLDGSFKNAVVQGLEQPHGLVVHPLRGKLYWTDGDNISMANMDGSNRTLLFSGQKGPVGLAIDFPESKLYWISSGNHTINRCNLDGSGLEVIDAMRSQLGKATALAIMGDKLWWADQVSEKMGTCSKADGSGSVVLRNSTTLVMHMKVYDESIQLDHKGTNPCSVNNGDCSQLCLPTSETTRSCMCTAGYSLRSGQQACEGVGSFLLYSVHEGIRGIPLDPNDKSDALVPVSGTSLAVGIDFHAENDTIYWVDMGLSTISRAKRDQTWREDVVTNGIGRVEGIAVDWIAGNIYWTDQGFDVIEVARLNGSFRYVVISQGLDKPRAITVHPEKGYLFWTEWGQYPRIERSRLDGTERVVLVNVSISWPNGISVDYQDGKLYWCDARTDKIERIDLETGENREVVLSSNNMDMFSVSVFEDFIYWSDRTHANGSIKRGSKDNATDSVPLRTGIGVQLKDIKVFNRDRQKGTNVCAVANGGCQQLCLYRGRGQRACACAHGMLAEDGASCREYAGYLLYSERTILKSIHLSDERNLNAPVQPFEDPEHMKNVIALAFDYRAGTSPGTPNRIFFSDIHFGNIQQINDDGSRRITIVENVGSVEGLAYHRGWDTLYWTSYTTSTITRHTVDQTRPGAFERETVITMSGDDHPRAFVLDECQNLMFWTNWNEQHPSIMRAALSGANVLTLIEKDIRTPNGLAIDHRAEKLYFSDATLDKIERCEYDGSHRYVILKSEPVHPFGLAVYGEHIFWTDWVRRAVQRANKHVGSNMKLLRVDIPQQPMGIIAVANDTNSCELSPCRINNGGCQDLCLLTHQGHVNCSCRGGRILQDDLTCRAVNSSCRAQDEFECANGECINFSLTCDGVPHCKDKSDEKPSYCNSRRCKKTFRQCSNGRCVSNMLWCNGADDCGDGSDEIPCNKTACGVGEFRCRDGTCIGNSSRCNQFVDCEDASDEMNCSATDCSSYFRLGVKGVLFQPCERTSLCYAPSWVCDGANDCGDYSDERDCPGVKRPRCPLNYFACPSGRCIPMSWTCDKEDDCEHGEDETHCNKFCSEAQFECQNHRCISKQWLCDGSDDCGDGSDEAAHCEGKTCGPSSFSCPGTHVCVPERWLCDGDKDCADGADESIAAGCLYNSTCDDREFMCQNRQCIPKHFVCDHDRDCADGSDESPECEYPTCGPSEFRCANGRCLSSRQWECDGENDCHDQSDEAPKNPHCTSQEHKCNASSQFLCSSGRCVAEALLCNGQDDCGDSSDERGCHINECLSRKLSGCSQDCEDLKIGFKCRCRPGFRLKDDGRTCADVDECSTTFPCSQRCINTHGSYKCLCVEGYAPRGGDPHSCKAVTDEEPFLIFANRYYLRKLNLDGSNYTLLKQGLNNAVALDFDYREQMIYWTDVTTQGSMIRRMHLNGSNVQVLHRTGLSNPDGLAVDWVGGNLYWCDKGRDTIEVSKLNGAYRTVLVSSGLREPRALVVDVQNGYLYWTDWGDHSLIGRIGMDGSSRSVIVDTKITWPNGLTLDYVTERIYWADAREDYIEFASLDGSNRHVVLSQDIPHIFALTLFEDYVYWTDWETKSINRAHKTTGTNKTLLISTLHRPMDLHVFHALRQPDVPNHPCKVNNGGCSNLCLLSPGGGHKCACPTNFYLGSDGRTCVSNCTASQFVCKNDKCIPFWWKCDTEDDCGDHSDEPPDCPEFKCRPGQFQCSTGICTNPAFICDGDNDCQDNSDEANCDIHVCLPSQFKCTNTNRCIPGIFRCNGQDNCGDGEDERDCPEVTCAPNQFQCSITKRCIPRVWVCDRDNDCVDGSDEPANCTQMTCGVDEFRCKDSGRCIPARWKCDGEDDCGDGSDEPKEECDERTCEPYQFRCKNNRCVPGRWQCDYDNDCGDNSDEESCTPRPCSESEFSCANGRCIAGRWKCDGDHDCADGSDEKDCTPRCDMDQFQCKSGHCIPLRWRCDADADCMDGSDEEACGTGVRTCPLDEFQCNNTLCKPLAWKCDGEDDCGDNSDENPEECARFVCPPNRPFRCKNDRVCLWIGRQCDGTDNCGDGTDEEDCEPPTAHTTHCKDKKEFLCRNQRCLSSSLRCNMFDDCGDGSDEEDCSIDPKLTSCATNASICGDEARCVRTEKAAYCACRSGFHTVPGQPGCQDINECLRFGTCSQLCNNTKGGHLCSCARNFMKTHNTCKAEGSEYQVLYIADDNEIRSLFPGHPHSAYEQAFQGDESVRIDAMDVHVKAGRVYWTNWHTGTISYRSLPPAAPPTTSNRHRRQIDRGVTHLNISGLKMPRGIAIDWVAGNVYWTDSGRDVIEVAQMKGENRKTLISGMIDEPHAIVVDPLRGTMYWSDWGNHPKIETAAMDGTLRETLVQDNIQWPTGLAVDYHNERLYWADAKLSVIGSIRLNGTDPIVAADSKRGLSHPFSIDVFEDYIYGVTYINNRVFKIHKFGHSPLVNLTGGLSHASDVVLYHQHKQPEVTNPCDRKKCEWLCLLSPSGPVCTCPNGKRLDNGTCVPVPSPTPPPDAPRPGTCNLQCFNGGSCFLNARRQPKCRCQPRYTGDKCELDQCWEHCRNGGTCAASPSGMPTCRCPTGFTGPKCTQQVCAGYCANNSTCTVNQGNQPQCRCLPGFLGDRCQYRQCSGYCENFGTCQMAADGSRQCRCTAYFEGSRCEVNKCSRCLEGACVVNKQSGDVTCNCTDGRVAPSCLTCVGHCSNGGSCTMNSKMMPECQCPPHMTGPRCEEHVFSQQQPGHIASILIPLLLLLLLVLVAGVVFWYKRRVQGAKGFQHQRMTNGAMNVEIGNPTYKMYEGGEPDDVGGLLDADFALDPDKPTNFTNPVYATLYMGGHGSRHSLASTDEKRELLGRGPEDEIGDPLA

In the case of “ApoE3: recombinant ApoE isoform, the reference sequence, from Alpha Diagnostic”, the Aβ production entry with N2a-APPsw cells [1] and with N2a-APPsw cells [2] was “increased Aβ production” throughout.

Turning to “ApoE2: recombinant ApoE isoform with cysteine at residue 158, from Alpha Diagnostic”, the Aβ production entry in the test with N2a-APPsw cells [1] and with N2a-APPsw cells [2] was “increased Aβ production” each time.

Consider “ApoE: purified human apolipoprotein E, purchased from Biodesign / Alpha Diagnostic”, for which the “total amounts of ApoER2, APP and β-secretase in the cell lysates” value in test [3] (10 μg/mL, 2 h) is listed as “remained about the same”. Further, the “decrease of remaining cell-surface β-secretase” value in test [3] (10 μg/mL, 2 h, compared to controls (FIG. 6A)) is around 7%. For the same molecule, in test [3] (setting [6]), the “increase of intracellular APP” value is reported as “about 2.5 fold”, the “increase of intracellular ApoER2” value is reported as “small increases” and the “increase of intracellular β-secretase” value is recorded as “small increases”. The “intracellular APP C-terminal fragment C99” value in test [3] (Western blot, over the control (FIG. 6C)) is on record as “significantly increased”. For the same molecule, the “Aβ production in cells transfected with ApoER2 versus without” value in the test with N2a-APPsw cells [1] (N2a-APPsw cells (FIG. 5D)) is given as “produced more Aβ”. Moreover, the “APP ectodomain generated by ∝-secretase, s∝-APP” value in test [4] is on record as “reduction”. In addition, the “Aβ40 increase in cells transfected with ApoER2 versus blank vectors” value in the test with N2a-APPsw cells [2] (5 μg/mL, N2a APPsw cells, p<0.05 (FIG. 4)) is reported as “increase of Aβ40 at a greater extent”. The “Aβ40 levels in medium” value in the test with N2a-APPsw cells [2] (5 μg/mL, blank vector transfected N2a APPsw cells vs control (FIG. 4)) is on record as “increased over that in the control cells”. Also, the Aβ production result in the test on N2a-APPsw cells [2] is “increased Aβ production”.

B1: PTB domain of X11α (residue 457-751) expressed from pcDNA6 (other)
chain: DGIIFAANYLGSTQLLSDKTPSKNVRMMQAQEAVSRIKMAQKLAKSRKKAPEGESQPMTEVDLFISTQRIKVLNADTQETMMDHPLRTISYIADIGNIVVLMARRRMPRSNSQENVEASHPSQDGKRQYKMICHVFESEDAQLIAQSIGQAFSVAYQEFLRANGINPEDLSQKEYSDLLNTQDMYNDDLIHFSKSENCKDVFIEKQKGEILGVVIVESGWGSILPTVIIANMMHGGPAEKSGKLNIGDQIMSINGTSLVGLPLSTCQSIIKGLKNQSRVKLNIVRCPPVTTVLIR
notes: Expressed in cells from pcDNA6; also called separately expressed PTB domain of X11α
As for B1, the binding result in test [5] is given as “no binding”.

B2: human X11α (other)
chain: MNHLEGSAEVEVTDEAAGGEVNESVEADLEHPEVEEEQQQPPQQQHYVGRHQRGRALEDLRAQLGQEEEERGECLARSASTESGFHNHTDTAEGDVIAAARDGYDAERAQDPEDESAYAVQYRPEAEEYTEQAEAEHAEATHRRALPNHLHFHSLEHEEAMNAAYSGYVYTHRLFHRGEDEPYSEPYADYGGLQEHVYEEIGDAPELDARDGLRLYEQERDEAAAYRQEALGARLHHYDERSDGESDSPEKEAEFAPYPRMDSYEQEEDIDQIVAEVKQSMSSQSLDKAAEDMPEAEQDLERPPTPAGGRPDSPGLQAPAGQQRAVGPAGGGEAGQRYSKEKRDAISLAIKDIKEAIEEVKTRTIRSPYTPDEPKEPIWVMRQDISPTRDCDDQRPMDGDSPSPGSSSPLGAESSSTSLHPSDPVEASTNKESRKSLASFPTYVEVPGPCDPEDLIDGIIFAANYLGSTQLLSDKTPSKNVRMMQAQEAVSRIKMAQKLAKSRKKAPEGESQPMTEVDLFISTQRIKVLNADTQETMMDHPLRTISYIADIGNIVVLMARRRMPRSNSQENVEASHPSQDGKRQYKMICHVFESEDAQLIAQSIGQAFSVAYQEFLRANGINPEDLSQKEYSDLLNTQDMYNDDLIHFSKSENCKDVFIEKQKGEILGVVIVESGWGSILPTVIIANMMHGGPAEKSGKLNIGDQIMSINGTSLVGLPLSTCQSIIKGLKNQSRVKLNIVRCPPVTTVLIRRPDLRYQLGFSVQNGIICSLMRGGIAERGGVRVGHRIIEINGQSVVATPHEKIVHILSNAVGEIHMKTMPAAMYRLLTAQEQPVYI
notes: Adaptor protein expressed from a cDNA vector in HEK293 cells and assayed in lysate; the vector came from an outside laboratory; also called X11α/β
B2: in test [5], the binding result is “no binding”.
